How the values were obtained:
[1] = in vivo; cited from earlier work
MAO-B in platelets = target: T1, MAO-B in platelets (Homo sapiens, UniProt P27338); conditions: 100 mg dose, cited from earlier work
T1 construct: host or cells: platelets
T1 sequence (P27338 1-520): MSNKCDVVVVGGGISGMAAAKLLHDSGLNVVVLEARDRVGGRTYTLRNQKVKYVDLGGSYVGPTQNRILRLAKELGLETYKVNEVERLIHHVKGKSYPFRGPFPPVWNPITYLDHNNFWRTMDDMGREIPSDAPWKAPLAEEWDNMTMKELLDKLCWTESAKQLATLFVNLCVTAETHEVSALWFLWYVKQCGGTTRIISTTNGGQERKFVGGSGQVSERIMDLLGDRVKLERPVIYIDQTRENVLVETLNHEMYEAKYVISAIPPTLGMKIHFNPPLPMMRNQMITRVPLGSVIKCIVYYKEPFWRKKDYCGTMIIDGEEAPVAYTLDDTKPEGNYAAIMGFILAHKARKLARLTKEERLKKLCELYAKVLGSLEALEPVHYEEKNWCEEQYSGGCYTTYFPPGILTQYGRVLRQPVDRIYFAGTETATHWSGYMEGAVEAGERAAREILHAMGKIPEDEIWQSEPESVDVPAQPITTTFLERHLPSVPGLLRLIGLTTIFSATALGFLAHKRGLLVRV

MAO = conditions: cited from earlier work
MAO-B = target: T2, MAO-B (Sus scrofa, UniProt Q6PLK3); experiment: S9 liver fraction kynuramine/4HQ LCMS assay, dilution series (Examples 5 and 6); type: biochemical; conditions: read-out: 50% inhibition concentration (equivalent); porcine S9 fraction, kynuramine, 1 hr 37 C
T2 sequence (Q6PLK3 2-520): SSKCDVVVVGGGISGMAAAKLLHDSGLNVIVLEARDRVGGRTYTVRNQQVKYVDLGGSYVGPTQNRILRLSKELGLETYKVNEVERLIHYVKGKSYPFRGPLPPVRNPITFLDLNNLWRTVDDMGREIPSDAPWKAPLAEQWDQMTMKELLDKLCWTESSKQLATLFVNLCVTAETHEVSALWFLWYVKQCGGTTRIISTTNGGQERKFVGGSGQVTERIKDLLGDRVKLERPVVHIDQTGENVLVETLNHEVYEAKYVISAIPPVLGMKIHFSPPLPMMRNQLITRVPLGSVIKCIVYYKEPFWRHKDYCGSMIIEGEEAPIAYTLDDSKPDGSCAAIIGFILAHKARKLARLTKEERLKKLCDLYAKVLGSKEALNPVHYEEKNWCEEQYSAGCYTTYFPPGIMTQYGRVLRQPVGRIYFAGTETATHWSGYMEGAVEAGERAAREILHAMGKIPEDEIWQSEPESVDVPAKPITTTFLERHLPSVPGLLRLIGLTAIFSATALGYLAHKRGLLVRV
Procedure: We used a porcine S9 liver microsome fraction as the source of the MAO-A and MAO-B enzymes.
The S9 porcine fraction was mixed with a specific MAO substrate (kynuramine) and mixed with the test sample and buffer. After 1 hr at 37° C. the reaction was halted by cooling and addition of 2N NaOH and acetonitrile. The centrifuged sample was then analysed using LCMS and the level of 4-quinolol (4HQ) product measured.
The S9 liver microsome fraction containing the crude enzyme mix was from a frozen bulk sample derived from porcine liver.
Samples were prepared in a 6-well plate (deep well format with 1.1 ml strip tubes). The assay was performed by diluting the crude S9 fraction with buffer (PBS, PH 7.4, diluted 1 in 5, 150 μl) and adding the test sample dissolved in buffer (75 ul). An aliquot of kynuramine was added (10 μl of 1 mg/ml) and the plate was placed in a 37 C water bath for 1 hr. The plate was cooled in ice water before addition of 20 μl 2N NaOH followed by 250 μl acetonitrile. The individual strip tubes were centrifuged, and samples taken from each for LCMS analysis.
The LCMS analysis was performed using a Cyano HPLC column eluted with 0.1% formic in water and acetonitrile. The LC run was isocratic mode (40% Acetonitrile) and the relative levels of 4 hydroxy quinoline (4HQ) and kynuramine determined from peak areas. […] Kynuramine is converted to 4HQ by the MAO-B enzyme. […]

[2] = human, in vivo
Procedure: Subjective feeling questionnaires and venous blood samples were collected at various timepoints over 8 h. […] Participants and trial coordinators were masked as to which intervention drink participants consumed. Before each trial day, participants excluded foods and supplements high in polyphenol compounds from their diet, for 24 h. They fasted for at least 10 h before consuming an Almond with Vanilla One Square Meal Bar® (Cookie Time Ltd) for breakfast, 2 h before the start of the trial. Participants arrived at the PFR Clinical Facility, where they were made comfortable. After 5 min at rest, they completed visual analogue scale (VAS) subjective feelings questionnaires and then donated a venous blood sample. After which, they were served their intervention beverage and were instructed to consume it as quickly as possible. […]
The plasma samples (350 μL) were spiked with malvidin 3-O-galactoside and further acidified with phosphoric acid prior to clean up on a SOLAμ™ Solid Phase Extraction plate. […] Quantifications of individual and total anthocyanins were performed using the internal standard ratio method using MultiQuant software, and all results are reported as cyanidin 3-O-glucoside equivalents. Quantification of sarmentosin was performed using an external reference standard supplied by Stephen Bloor (Callaghan Institute).

MAO-A = target: T3, MAO-A (Homo sapiens, UniProt P21397); conditions: in vivo; cited from earlier work
T3 construct: purchased Sigma-Aldrich MAK295/296
T3 sequence (P21397 1-527): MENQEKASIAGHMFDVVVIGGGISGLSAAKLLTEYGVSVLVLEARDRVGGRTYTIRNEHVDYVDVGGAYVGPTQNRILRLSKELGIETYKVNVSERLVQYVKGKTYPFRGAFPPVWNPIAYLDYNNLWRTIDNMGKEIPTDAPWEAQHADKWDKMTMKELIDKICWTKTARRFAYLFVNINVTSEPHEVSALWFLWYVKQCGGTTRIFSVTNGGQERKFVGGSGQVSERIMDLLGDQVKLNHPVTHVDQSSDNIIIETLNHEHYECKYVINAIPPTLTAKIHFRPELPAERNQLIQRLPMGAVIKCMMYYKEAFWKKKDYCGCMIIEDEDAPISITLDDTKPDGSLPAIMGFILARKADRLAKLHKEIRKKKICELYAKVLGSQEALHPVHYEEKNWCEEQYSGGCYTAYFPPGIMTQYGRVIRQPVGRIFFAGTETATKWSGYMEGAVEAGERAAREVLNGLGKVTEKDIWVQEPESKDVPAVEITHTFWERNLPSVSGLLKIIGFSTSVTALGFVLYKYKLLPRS

Structure (SMILES): O=C(NCCN1CCOCC1)c1ccc(Cl)cc1 [Moclobemide]
- elimination half-life [1]: 1 to 3 h
- time to reach peak (plasma) concentrations [1]: approximately 1 hours

Structure (SMILES): NCCNC(=O)c1ccc(Cl)cn1 [lazabemide]
- inhibition of MAO-B in platelets (MAO-B in platelets; 30 min post dose): > 90%
- time at which maximal inhibition subsides (MAO-B in platelets; post dose): 16 h
- time of full restoration of enzyme activity (MAO-B in platelets; post dose): 48 h

Structure (SMILES): O=c1c(O)c(-c2ccc(O)c(O)c2)oc2cc(O)cc(O)c12 [quercetin]
- MAO inhibitory activity by HPLC method (MAO): not active

Structure (SMILES): N#C/C(=C\CO[C@@H]1O[C@H](CO)[C@@H](O)[C@H](O)[C@H]1O)CO [sarmentosin, 4-(beta-D-glucopyranosyloxy)-2-(hydroxymethyl-2-butenenitrile)]
- IC50 (MAO-B): ~1450 nM
- time of peak concentrations of sarmentosin in plasma [2]: 120 min

Structure (SMILES): Cc1cccc(N2CC(CO)OC2=O)c1 (stereo not drawn) [toloxatone]
- duration of MAO-A inhibition (MAO-A): only six hours

From US20260014180A1, “BIOACTIVES AND THEIR USES” (AREPA IP LIMITED, priority 2022, published 2026)
